Measured values from patent US8586369B2, “Ion channel-forming peptides” (The Regents of the University of California, priority 2007, dated 2013).

Columns and labels:
Type in all cases: biochemical
[1] = Monitoring a 1,3-dipolar cycloaddition (click) reaction in situ using single ion channel recordings; details: 40 pM gramicidazide, 2 mM propargyl sulfonate, 0.5 mM CuSO4
Experimental: Gramicidazide was added to a final concentration of 40 pM to both 4 mL chambers of a stirred lipid bilayer setup comprised of zwitterionic 1,2-diphytanoyl-sn-glycero-3-phosphatidylcholine (DiPhyPC) lipids that separated two compartments containing 20 mM KCl, 0.2 mM HEPES buffer, 2 mM sodium ascorbate (as a reducing agent for Cu^II), and 2 mM propargyl sulfonate. The final pH of this solution was 6.9. CuSO4 was added (to give a final concentration of Cu^II of 0.5 mM) to both chambers of the bilayer setup and recorded the single ion channel activity over time. […] The cycloaddition reaction was monitored at a constant applied potential of +75 mV. […]
Monitoring a 1,3-dipolar cycloaddition (“click”) reaction in situ using single ion channel recordings: About 3 μl, (from a 100 ng mL^−1 solution in ethanol) of gramicidazide was added (to afford a final concentration of 40 pM of gramicidazide) to each compartment of a bilayer setup containing as electrolyte 20 mM KCl and 0.2 mM HEPES buffer. […] This strategy made it possible to observe measured currents that would frequently return to baseline (i.e., current steps separated by no observed channel events). Consequently, a small number of events over time were observed, and thus analyzed the data over a window of time rather than at specific time points. […] For the 4-15 minute time window, we measured 26 total channel events. […]

[2] = Single channel recordings of gA derivatives in planar lipid bilayers (Example 2); details: 20 mM KCl
Experimental: Formation of Planar Lipid Bilayers: Planar lipid bilayers were formed by the “folding technique.” Briefly, a film (e.g., Teflon®, Eastern Scientific Inc, pore diameter 0.1-0.2 mm) that was pretreated on both sides of the pore with 2 μL of 5% (v/v) hexadecane in pentane. This film was mounted using vacuum grease (Dow Corning, High vacuum grease) to a custom-made Teflon chamber separating two buffer compartments each with a volume capacity of 4 mL. After addition of 1 mL of electrolyte (20 mM KCl buffered with 0.2 mM HEPES pH 7.4 or 140 mM KCl buffered with 10 mM phosphate pH 8.0) to each compartment, lipids were spread at the air-water interface of the electrolyte solution in both compartments. Three additional milliliters of the same electrolyte solution were added to each compartment to raise the liquid level above the aperture in the Teflon film. The bilayers were formed on the pore of the Teflon film by aspirating the electrolyte solution into a 3 mL syringe, followed by dispensing the electrolyte solution back into each compartment.
Ion Channel Measurements: Single channel recordings in “voltage clamp mode” were performed using Ag/AgCl pellet electrodes (Warner Instruments) in each compartment of the bilayer setup. Data acquisition and storage was carried out using custom software in combination with an EPC-7 patch clamp amplifier from Heka (set at a gain of 10 mV pA^−1 and a filter cutoff frequency of 3 kHz). The data acquisition board for the amplifier was set to a sampling frequency of 15 kHz. All current traces shown in the figures were further filtered using a digital Gaussian low-pass filter with a cutoff frequency of 4 Hz.
The analysis of single channel current traces was performed by computing histograms of the currents from the original current versus time traces with ClampFit 9.2 software from Axon Instruments. From these histograms, main current values were extracted by fitting a Gaussian function to the peaks in the histograms. […]

[3] = Single channel conductance of gA phosphate and its hydrolysis product in planar lipid bilayers (Example 3); details: for single channel conductance (γ): 50 mM CsCl, 1 mM MgCl2, 0.5 mM K2CO3, pH 9.8, slopes of I-V curves
Experimental: Formation of Planar Lipid Bilayers: Planar lipid bilayers were formed by the “folding technique” as previously described. The recording electrolyte was 1 mM MgCl2, 50 mM CsCl buffered with 0.5 mM K2CO3 at pH 9.8. Briefly, we spread a solution containing 25 mg mL^−1 1,2-diphytanoyl-sn-glycero-3-phosphatidylcholine (DiPhyPC) lipids in pentane at the air-water interface of the electrolyte solution in both compartments of the bilayer setup. 3 mL of the total volume of 4 mL of electrolyte solution in each bilayer compartment was aspirated into a syringe, followed by dispensing the electrolyte solution back into each compartment.
Ion Channel Measurements: We performed single channel recordings in “voltage clamp mode” using Ag/AgCl pellet electrodes (Warner Instruments) in each compartment of the bilayer setup. Data acquisition and storage was carried out using custom software in combination with an EPC-7 patch clamp amplifier from Heka (set at a gain of 10 mV pA-1 and a filter cutoff frequency of 3 kHz). The data acquisition board (National Instruments, Austin, Tx) for the amplifier was set to a sampling frequency of 15 kHz. The current traces shown in the FIG. 2 were further filtered using a digital Gaussian low-pass filter with a cutoff frequency of 4 Hz.
Analysis of the single channel current traces was performed by computing histograms of the currents from the original current versus time traces with ClampFit 9.2 software from Axon Instruments. From these histograms we extracted the main current values by fitting a Gaussian function to the peaks in the histograms. All conductance values were obtained from the slopes of I-V curves.

[4] = test system: alkaline phosphatase (AP); test: Enzymatic hydrolysis of gA phosphate in the presence of AP monitored by single ion channel recordings
Experimental: To detect a change in single ion channel currents, gA phosphate was added to a final concentration of about 200 pM to both compartments of a planar lipid bilayer platform (FIG. 15) containing a recording electrolyte. AP was added to a final concentration of about 600 nM and the enzymatic conversion of gA phosphate to its hydrolysis product over time was monitored. We estimated the time-dependent conversion of gA phosphate to its hydrolysis product by comparing the fraction of events from gA phosphate to the fraction of events from its hydrolysis product throughout the course of the reaction. […]
Procedure for monitoring the enzymatic hydrolysis of 6 in the presence of AP using single ion channel recordings: For in situ measurements, about 19 μL (from a 100 ng mL-l solution in ethanol) of gA phosphate (to afford a final concentration of 200 pM of 6) was added to each compartment of a bilayer setup containing recording electrolyte. […] Ion channel events were recorded continuously over the course of the reaction. […] Single ion channel events were recorded during a 10 min time window once a day (50-250 events) over the course of 4 days by filling both compartments of the bilayer setup with 4 mL of the solutions with the desired AP concentration. […]

Row | Substance | time after which the click reaction was complete [1] [min] | single channel conductance (γ) ([2]; 0.2 mM HEPES, 2 mM sodium ascorbate, 2 mM propargyl sulfonate, 0.5 mM CuSO4, pH 6.9, pure samples) [pS] | ion channel activity in planar lipid bilayers ([2]; applied potential 100 mV, 0.2 mM HEPES pH 7.4) | single channel conductance (γ) [3] | single channel conductance (γ) ([3]; listed as 6) | single channel conductance (γ) ([3]; listed as phosphorylated derivative) [pS] | factor by which conductance is larger than that of the gA phosphate hydrolysis product ([3]; 125 mV, buffered recording electrolyte) | time after which almost all recorded ion channel events originated from the hydrolysis product ([4]; 200 pM gA phosphate, 600 nM AP, in situ) [min] | hydrolysis in the absence of AP ([4]; ion channel experiments over the course of 1 h, pH 9.8 recording electrolyte)
1 | gramicidazide | ~90 | 3.3±0.1 | retained well-defined ion channel activity | – | – | – | – | – | –
2 | gramicidine A (gA) phosphate [gA phosphate] | – | – | – | ≈ 16 pS | 16.4±0.3 pS and ≈ 16 pS | 16.4±0.3 | 4 | 35 | No hydrolysis was observed
